Measured values taken from patent US20160206580A1, “[…] LIPOSOME FORMULATIONS OF TRANEXAMIC ACID” (Pacira Pharmaceuticals, Inc., priority 2015, published 2016).
Where two headings read alike, the source gives them in different places.

Tests used:
[1] = Percent free (unencapsulated) TXA in the formulation; type: physicochemical; details: formulations dosed in the rat PK study (Table 2)
Source text: The present embodiments provide pharmaceutical formulations comprising multivesicular liposomes (MVLs) containing tranexamic acid (TXA) which minimize the side effects of TXA while maintaining or improving efficacy and lengthening the duration of the effect. The present embodiments also provide pharmaceutical formulations comprising TXA encapsulated in the MVLs and unencapsulated TXA. The term “unencapsulated” as used herein, means that the biologically active ingredient (e.g., tranexamic acid) is outside the MVL particles, for example, in the suspending solution. The unencapsulated TXA provides immediate efficacy of TXA while the use of TXA encapsulated MVLs formulations in the instant embodiments results in the release of TXA for an extended period. The processes of preparing the DEPO-TXAs and the methods of using the DEPO-TXA formulations for treating, ameliorating, or preventing blood loss are also disclosed herewith. […]
For the 40 mg/mL formulation, % PPV is about 50.0% and the assumed interstitial volume (mL) is about 20%, rendering about 62% free TXA outside of the multivesicular liposomes. […] During the first 12 h, the released TXA contributes to the initial TXA peak measured in the plasma. […]

[2] = Toxicokinetics of TXA in plasma after subcutaneous injection; type: in vivo, beagle dog
Description: (§1) The objectives of this study were to determine the potential toxicity of TXA formulations, when given by subcutaneous injection to the beagle dog and to evaluate the potential reversibility of any findings, in comparison to the Reference Control Item, Tranexamic acid. In addition, the toxicokinetic profiles were determined.
(§2) The Test, Reference Control and Reference Items were administered to the appropriate animals via subcutaneous injection into the scapular and mid-dorsal areas on Days 1, 4, 7, and 10. The dose volume for each animal was based on the most recent body weight measurement. The volume for each dose was administered using a syringe/needle over one injection. Injection sites were rotated between two delimited sites (and the same site for all animals on a given day). Dosing area was shaved as needed and injection sites were marked with a pen (target area of 5 cm×5 cm). The first dosing site was in the mid-scapular region of the back and the second dosing site was caudal to the first site in the mid-dorsum region.
Blood was collected from the jugular vein (or cephalic vein) from all animals in lithium heparin-containing tubes.
Samples were mixed gently and placed on crushed wet ice until centrifugation, which was carried out as soon as practical. The samples were centrifuged for 10 minutes in a refrigerated centrifuge (set to maintain the temperature at 4° C.) at 2700 rpm. The resultant plasma was separated, transferred to uniquely labeled clear polypropylene tubes, and frozen immediately over dry ice and transferred to a freezer set to maintain −80° C.
Plasma samples were analyzed for concentration of the tranexamic acid using a validated analytical procedure.
Toxicokinetic parameters were generated from the test item (tranexamic acid) individual concentrations in plasma from Days 1 and 10, whenever practical.

beagle dog = assay: Evaluation of toxicity of subcutaneous administration; type: in vivo; details: sc
Description: as §1
21 male and 21 female beagle dogs were used in this study. The animals were from 6 to 7 months old and weighed between 7.5 and 9.8 kg (males) and 6.0 and 8.2 kg (females) at initiation of dosing.
as §2
Blood was collected from the jugular vein. Urine was collected overnight from individually housed animals. […]

- Percent free TXA [1]: 100%
Compound: NC[C@H]1CC[C@H](C(=O)O)CC1 [TXA, tranexamic acid]
- mean peak exposures (Cmax) higher for the free TXA group than DepoTXA ([2]; 120 mg/kg dose level, Day 1): 28%
- peak TXA levels lower for the free TXA group than DepoTXA ([2]; 120 mg/kg dose level, Day 10, after fourth and final sc dose): 14%
- administered TXA cleared after 12 hours (percent of total AUC) ([2]; beagle dog, sc, FIGS. 5A, 5B): 94%
- time to exposure to nearly the full TXA dose ([2]; beagle dog, sc, FIGS. 6A, 6B): less than 24 hours
- AUC(0-t) ([2]; beagle, dog, plasma, sc, 120 mg/kg, beagle dog, sc, 120 mg/kg/dose, Day 1, read-out: AUC0-72): 490 µg·h/mL
- Cmax ([2]; beagle, dog, plasma, sc, 120 mg/kg, beagle dog, sc, 120 mg/kg/dose, Day 1, read-out: Cmax): 140 µg/mL
- Tmax ([2]; beagle, dog, plasma, sc, 120 mg/kg, beagle dog, sc, 120 mg/kg/dose, Day 1, read-out: Tmax): 1.2 h
- half-life ([2]; beagle, dog, plasma, sc, 120 mg/kg, beagle dog, sc, 120 mg/kg/dose, Day 1, read-out: t1/2 (converted)): 25.7 h
- AUC(0-t) ([2]; beagle, dog, plasma, sc, 120 mg/kg, beagle dog, sc, 120 mg/kg/dose, Day 10, read-out: AUC0-72): 484 µg·h/mL
- Cmax ([2]; beagle, dog, plasma, sc, 120 mg/kg, beagle dog, sc, 120 mg/kg/dose, Day 10, read-out: Cmax): 119 µg/mL
- Tmax ([2]; beagle, dog, plasma, sc, 120 mg/kg, beagle dog, sc, 120 mg/kg/dose, Day 10, read-out: Tmax): 1.1 h
- half-life ([2]; beagle, dog, plasma, sc, 120 mg/kg, beagle dog, sc, 120 mg/kg/dose, Day 10, read-out: t1/2 (converted)): 28.9 h
- half-life ([2]; beagle, dog, plasma, sc, 120 mg/kg, mean±SD, sc, 120 mg/kg, Day 1, read-out: Mean terminal elimination half-life (t1/2elim) (converted)): 25.7 ± 2 h
- half-life ([2]; beagle, dog, plasma, sc, 120 mg/kg, mean±SD, sc, 120 mg/kg, Day 10, read-out: Mean terminal elimination half-life (t1/2elim) (converted)): 28.9 ± 2.9 h
- Cmax ([2]; both sexes, beagle, dog, plasma, sc, 120 mg/kg, genders combined mean, sc, 120 mg/kg, Day 10, read-out: mean peak levels (Cmax)): 119 ± 15.4 µg/mL
- AUC(0-t) ([2]; both sexes, beagle, dog, plasma, sc, 120 mg/kg, mean±SD, n=10, genders combined, sc, 120 mg/kg, Day 1, read-out: AUC0-24): 475 ± 35.1 µg·h/mL
- AUC(0-t) ([2]; both sexes, beagle, dog, plasma, sc, 120 mg/kg, mean±SD, n=10, genders combined, sc, 120 mg/kg, Day 1, read-out: AUC0-48): 485 ± 36.1 µg·h/mL
- AUC(0-t) ([2]; both sexes, beagle, dog, plasma, sc, 120 mg/kg, mean±SD, n=10, genders combined, sc, 120 mg/kg, Day 1, read-out: AUC0-72): 490 ± 36.5 µg·h/mL
- Tmax ([2]; both sexes, beagle, dog, plasma, sc, 120 mg/kg, mean±SD, n=10, genders combined, sc, 120 mg/kg, Day 1, read-out: Tmax (plasma concentrations of TXA peaked)): 1.2 ± 0.42 h
- Cmax ([2]; both sexes, beagle, dog, plasma, sc, 120 mg/kg, mean±SD, n=10, genders combined, sc, 120 mg/kg, Day 1, read-out: mean peak levels (Cmax)): 140 ± 19.2 µg/mL
- AUC(0-t) ([2]; both sexes, beagle, dog, plasma, sc, 120 mg/kg, mean±SD, n=10, genders combined, sc, 120 mg/kg, Day 10, read-out: AUC0-24): 468 ± 42.5 µg·h/mL
- AUC(0-t) ([2]; both sexes, beagle, dog, plasma, sc, 120 mg/kg, mean±SD, n=10, genders combined, sc, 120 mg/kg, Day 10, read-out: AUC0-48): 479 ± 44.2 µg·h/mL
- AUC(0-t) ([2]; both sexes, beagle, dog, plasma, sc, 120 mg/kg, mean±SD, n=10, genders combined, sc, 120 mg/kg, Day 10, read-out: AUC0-72): 484 ± 45.2 µg·h/mL
- Tmax ([2]; both sexes, beagle, dog, plasma, sc, 120 mg/kg, mean±SD, n=10, genders combined, sc, 120 mg/kg, Day 10, read-out: Tmax (mean peak concentrations reached)): 1.1 ± 0.32 h
- AUC(0-inf) ([2]; both sexes, beagle, dog, plasma, mean±SD, n=10, genders combined, sc, 120 mg/kg, Day 1): 495 ± 36.8 µg·h/mL
- clinical signs following dosing (beagle dog): at a similar incidence and severity
